Patent US20080280837A1, “Biologically Active Compounds with Anti-Angiogenic Properties” (priority 2004, published 2008)

Legend:
[1] = target: T1, Human SST5 somatostatin receptor (SSTR5) (Homo sapiens, UniProt P35346); assay: Filter plate assay for SST5 receptor, displacement of [125I]SST-14; assay type: binding
T1 construct: expressed in transfected cells; host or cells: HEK-293 EBNA
Method in brief: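 HEK-293 EBNA membranes expressing human SST5 (5.5 μg) incubated 60 min at 25 °C with 4 nM [125I]SST-14 and compound in pH 7.5 Tris/EGTA/MgCl2/sucrose buffer. Bound radioactivity collected on PEI-coated glass fiber filters and counted; triplicate 1:5 dilution series from 125 μM, non-specific binding with excess cold ligand.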

[2] = ActiveTox suite of toxicity assays (LDH release, proliferation, ATP content, caspase 3/7, cyp1A induction, P-glycoprotein inhibition, cyp3A induction via PXR or GR); assay type: cell-based; details: 10 and 100 μM, quadruplicate
Method: Compounds were analyzed in eight separate assays at concentrations of 10 and 100 μM in quadruplicate. Compounds were assayed tar toxicity via LDH release, inhibition of proliferation, ATP content, caspase 3/7 activation. Compounds were assayed for induction of cyp1A and P-glycoprotein inhibition. Compounds were also assayed for cyp3A induction under conditions which favor activation via the pregnane receptor (PXR) or the glucorticord receptor (GR). Appropriate positive and negative controls were included in each case.

SSTR-2 = target: T2, SSTR-2 (Homo sapiens, UniProt P30874); assay: Radioligand binding screen against somatostatin subtype SSTR-2
T2 construct: expressed in transfected cells
Method: Receptor membrane preparations containing the desired cloned receptor (for example cloned human somatostatin receptor subtype 5, SSTR5) and radio-labeled ligand (for example 3-[^125I]iodotyrosyl^11 Somatostatin-14)) were diluted at the concentration required for testing and according to the specific parameters associated with the selected receptor-ligand combination, including receptor Bmax, ligand Kd and any other parameters necessary to optimize the experimental conditions. When tested for competition activity to the reference ligand, “compound 1” was mixed with membrane suspension and the radiolabeled reference ligand (with or without an excess of cold ligand to the receptor for determination of non-specific binding) and incubated at the temperature required by internal standard operating procedures. Following incubation, the binding reaction was stopped by the addition of ice-cold washing buffer and filtered on appropriate filters, which are then counted. Data analysis and curve-fitting was performed with XLfit (IDBS).
10 mM solutions of test compounds in 100% DMSO were prepared. ˜160 μl was used for each dilution (20 μl/well in triplicate).
A 1.25 mM assay stock was prepared by making a 1:8 dilution of the 10 mM solution. (To 30 μL of the 10 mM solution was added 210 μL milli-Q H2O. A 1:5 dilution series in milli-Q H2O was then prepared.
In primary screening experiments compounds were tested in duplicate for a particular concentration.

MCF—7 cell line = assay: Cell proliferation assay (CellTiter 96 AQueous One) as indicator of toxicity, MCF-7; assay type: cell-based; details: MCF—7, 100 μM
Method: A simple cell proliferation assay was used to determine the in vitro cytotoxicity of “compound 1.” Selected cell lines were cultured according to their specific requirements. The optimal cell density required for each cell line was determined. All compounds were tested at a single concentration in triplicate. Cell viability was determined using the CellTiter 96® AQueous One reagent from Promega Corporation.
Assays are performed by adding the test compound to the cells in culture and incubating the cells for a fixed period. The number of viable cells remaining after the incubation period is determined by adding a small amount of the CellTiter 96® AQueous One Solution Reagent directly to culture wells, incubating for 1-4 hours and then recording absorbance at 490 nm with a 96 well plate reader.
Controls in the assay include untreated cells, wells without cells and cells treated with know cytotoxic agents. Data is presented as % inhibition of cell proliferation.

[3] = normalized IC50: lowest IC50 for a compound = 1

T2 sequence (P30874 whole entry): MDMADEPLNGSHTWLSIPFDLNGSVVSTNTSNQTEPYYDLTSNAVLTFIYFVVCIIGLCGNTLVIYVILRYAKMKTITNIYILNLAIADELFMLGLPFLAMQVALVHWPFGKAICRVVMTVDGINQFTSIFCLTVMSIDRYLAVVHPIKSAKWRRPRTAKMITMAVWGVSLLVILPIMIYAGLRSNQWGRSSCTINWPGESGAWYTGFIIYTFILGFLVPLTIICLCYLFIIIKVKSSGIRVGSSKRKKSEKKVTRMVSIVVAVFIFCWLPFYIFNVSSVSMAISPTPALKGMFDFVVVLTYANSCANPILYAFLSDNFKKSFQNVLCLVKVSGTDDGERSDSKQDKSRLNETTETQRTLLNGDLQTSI
T1 sequence (P35346 whole entry): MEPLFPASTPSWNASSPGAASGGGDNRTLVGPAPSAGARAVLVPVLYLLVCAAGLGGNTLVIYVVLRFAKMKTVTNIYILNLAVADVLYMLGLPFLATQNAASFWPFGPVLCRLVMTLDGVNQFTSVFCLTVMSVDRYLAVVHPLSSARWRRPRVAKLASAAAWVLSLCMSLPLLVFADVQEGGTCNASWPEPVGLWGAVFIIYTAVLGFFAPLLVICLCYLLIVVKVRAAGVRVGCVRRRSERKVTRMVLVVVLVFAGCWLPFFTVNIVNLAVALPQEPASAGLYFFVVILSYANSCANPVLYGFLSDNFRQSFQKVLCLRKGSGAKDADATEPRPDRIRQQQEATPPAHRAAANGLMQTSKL

IC50 ([1]; concentration required to displace 50% of the competitive radioligand, read-out: IC50 SSTR5): 0.322 µM | selectivity SSTR5 [1, 3]: 1 | Hillslope SSTR5 ([1]; slope of binding curve): 0.71 | IC50 (SSTR-2; concentration required to displace 50% of the competitive radioligand, read-out: IC50 SSTR2): 7.5 µM | selectivity SSTR2 (SSTR-2; [3]): 23.2 | Hillslope SSTR2 (SSTR-2; slope of binding curve): 1.2
SMILES: COC[C@H]1O[C@H](OCCc2ccccc2)[C@H](NC(=O)CCCN)[C@@H](OCc2ccc3ccccc3c2)[C@@H]1O [Compound 1]
Effects in the eight ActiveTox assays [2]: no statistical effects | Inhibition of cell proliferation (MCF—7 cell line): no inhibitory effect
